Measurements taken from patent EP0092173A1, “11-Beta-chlorosteroids, process for their preparation and pharmaceutical compositions containing them” (SCHERING AKTIENGESELLSCHAFT, priority 1982, dated 1983).

Experiments:
[1] = tested on: infantilen weiblichen Kaninchen; experiment: Clauberg test for progestational (gestagenic) activity after oral administration; type: in vivo; details: for McPhail: infantile female rabbits; for Schwellendosis (McPhail 1,5) für die gestagene Wirkung: minimum amount for a positive effect (McPhail 1,5)
Description: Die gestagene Wirkung wurde im üblichen Clauberg-Test nach oraler Applikation an infantilen weiblichen Kaninchen ermittelt.
Die zur Erzielung eines positiven Effekts benötigte Mindestmenge wird durch den McPhail-Wert 1,5 ausgedrückt.
In der folgenden Tabelle werden die Ergebnisse des Tests zusmmengestellt.

[2] = target: Androgen-Rezeptor (Homo sapiens, UniProt P10275); experiment: Androgen receptor test (competition factor); type: binding; details: assessment in words, based on the competition factor
Androgen-Rezeptor, sequence (P10275 whole entry): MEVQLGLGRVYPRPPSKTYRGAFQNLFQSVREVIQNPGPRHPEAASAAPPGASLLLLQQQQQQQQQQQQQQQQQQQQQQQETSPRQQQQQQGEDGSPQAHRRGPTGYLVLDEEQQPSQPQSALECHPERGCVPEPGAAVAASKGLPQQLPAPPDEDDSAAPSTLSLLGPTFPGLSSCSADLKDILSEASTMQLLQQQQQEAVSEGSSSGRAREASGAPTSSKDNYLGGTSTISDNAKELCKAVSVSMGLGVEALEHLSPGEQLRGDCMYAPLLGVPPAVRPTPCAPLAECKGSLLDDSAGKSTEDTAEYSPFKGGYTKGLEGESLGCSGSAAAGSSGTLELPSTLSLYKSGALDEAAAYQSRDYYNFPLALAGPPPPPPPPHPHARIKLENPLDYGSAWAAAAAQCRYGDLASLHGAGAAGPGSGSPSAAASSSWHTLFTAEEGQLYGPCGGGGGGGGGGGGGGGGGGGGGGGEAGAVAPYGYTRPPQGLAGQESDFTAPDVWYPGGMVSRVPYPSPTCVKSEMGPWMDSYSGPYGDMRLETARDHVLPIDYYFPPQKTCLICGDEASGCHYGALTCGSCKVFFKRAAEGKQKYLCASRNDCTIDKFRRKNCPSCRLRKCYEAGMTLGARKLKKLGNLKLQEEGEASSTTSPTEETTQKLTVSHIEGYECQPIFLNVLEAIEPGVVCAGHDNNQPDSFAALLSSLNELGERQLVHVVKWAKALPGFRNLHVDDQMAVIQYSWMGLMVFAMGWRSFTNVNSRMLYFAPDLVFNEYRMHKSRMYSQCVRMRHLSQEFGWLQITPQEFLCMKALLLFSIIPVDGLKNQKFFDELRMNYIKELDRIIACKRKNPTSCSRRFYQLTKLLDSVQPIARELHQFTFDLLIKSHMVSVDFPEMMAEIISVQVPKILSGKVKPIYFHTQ

SMILES | McPhail ([1]; Dosis 0,01 mg) | McPhail ([1]; Dosis 0,1 mg) | McPhail ([1]; Dosis 0,03 mg) | McPhail ([1]; Dosis 0,003 mg) | Schwellendosis (McPhail 1,5) für die gestagene Wirkung [1] | androgene Nebenwirkung [2]
CC[C@]12C[C@H](Cl)[C@H]3[C@@H](CCC4=CC(=O)CC[C@@H]43)[C@@H]1CC[C@@]2(O)C#CCl [Verbindung A, 11ß-Chlor-17α-chlorethinyl-17ß-hydroxy-18-methyl-4-östren-3-on] | 1,9 | 3,3 | 3,0 | 1,2 | ~0,003 mg | nur eine ganz geringfügige androgene Nebenwirkung
C#C[C@]1(O)CC[C@H]2[C@@H]3CCC4=CC(=O)CC[C@@H]4[C@H]3[C@@H](Cl)C[C@@]21CC [Verbindung B, 11ß-Chlor-17α-ethinyl-17ß-hydroxy-18-methyl-4-östren-3-on, reference compound] | 1,4 | – | 2,5 | 1,1 | ~0,01 mg | noch schwach androgen wirksam
